Source: BindingDB's records for doi:10.1021/jm990235p (Va Medical Center, 1999)

Molecular target: aldehyde dehydrogenase (Saccharomyces cerevisiae)
Test: In vitro inhibitory activity against yeast Aldehyde dehydrogenase

IC50: 169 µM
SMILES: CCOC(=O)N(OC(=O)N(CC)CC)S(=O)(=O)c1ccccc1 [ethyl [(diethylamino)carbonyl]oxy(phenylsulfonyl)carbamate]
